In brackets after ≈: the same amount, converted by molar mass. Read-outs that look alike come from different tables or passages of the source.
Tests used:
Assay in all cases: MIC on standard strains, standard method of Japan Society of Chemotherapy
Type in all cases: cell-based
[1] = tested on: P. mirabilis IFO 3849
In short: (§1)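 Read-out: lowest concentration inhibiting growth, per Japanese chemotherapy society guidelines. Strain set comprised 25 standard organisms, including two MRSA isolates. Controls included CTM and FMOX.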

[2] = tested on: A. faecalis ATCC 3750; conditions: Alcaligenes faecalis, ATCC3750, A. faecalis ATCC 3750; read-out: MIC
In short: as §1

[3] = tested on: M. morganii IFO 3848; conditions: Morganella morganii, IFO3848
In short: as §1

[4] = tested on: P. aeruginosa AKR17; conditions: Pseudomonas aeruginosa
In short: as §1

[5] = tested on: S. marcescens No. 16-2; conditions: Serratia marcescens, NO.162
In short: as §1

[6] = tested on: S. aureus 195; conditions: Staphylococcus aureus; S. aureus 195 (MRSA)
In short: as §1

[7] = tested on: E. cloacae ATCC 13407
In short: as §1

[8] = tested on: M. luteus ATCC 9341; conditions: Micrococcus luteus, ATCC9341
In short: as §1

[9] = tested on: S. aureus 209p JC-1; conditions: Staphylococcus aureus, 209P, read-out: MIC
In short: as §1

[10] = tested on: E. coli NHIJ JC-2; conditions: Escherichia coli, NHIJJC2
In short: as §1

[11] = tested on: K. pneuminiae IFO 3317
In short: as §1

[12] = tested on: A. calcoaceticos T59
In short: as §1

[13] = tested on: E. coli CSH2(RE45); conditions: Escherichia coli
In short: (§2)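 Test compounds were run alongside cefotiam and flomoxef controls, with growth inhibition assessed by the standard protocol of the Japan Society of Chemotherapy on 25 reference strains.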

[14] = tested on: S. aureus 167; conditions: Staphylococcus aureus; S. aureus 167 (MRSA)
In short: as §1

[15] = tested on: S. aureus Smith; conditions: Staphylococcus aureus, read-out: MIC
In short: as §1

[16] = tested on: E. cloacae Nek39
In short: as §1

[17] = tested on: P. aeruginosa NCTC 10490; conditions: Pseudomonas aeruginosa, NCTC10490, P. aeruginosa NCTC 10490; read-out: MIC
In short: as §1

[18] = tested on: B. subtilis ATCC 6633
In short: as §1

[19] = tested on: S. epidemidis IAM 1296
In short: as §1

[20] = tested on: P. cepacia
In short: as §1

[21] = tested on: K. pneuminiae No. 42
In short: as §1

[22] = tested on: E. coli CSH2(RK1); conditions: Escherichia coli
In short: as §2

[23] = tested on: S. marcescens IAM 1184; conditions: Serratia marcescens, IAM1184, S. marcescens IAM 1184; read-out: MIC
In short: as §1

[24] = tested on: C. freundii ATCC 8090
In short: as §1

[25] = tested on: P. vulugaris OX-19
In short: as §1

Work on `CO[C@@]1(NC(=O)CSC(F)F)C(=O)N2C(C(=O)O)=C(CSc3nnnn3CCO)CO[C@@H]21` [FMOX, flomoxef, reference compound] yielded an MIC ([1]; P. mirabilis IFO 3849) of 0.2 mg/L (≈ 0.403 µM), an MIC ([1]; Proteus mirabilis, IFO3849, P. mirabilis IFO 3849, read-out: MIC) of 0.39 mg/L (≈ 0.786 µM) and an MIC [2] of 0.1 mg/L (≈ 0.201 µM). The MIC [3] was 0.39 mg/L (≈ 0.786 µM), the MIC [4] was > 100 mg/L and the MIC [5] was 100 mg/L (≈ 201 µM). The MIC [6] was 3.13 mg/L (≈ 6.3 µM), the MIC ([7]; E. cloacae ATCC 13407) was 100 mg/L (≈ 201 µM) and the MIC ([7]; Enterobacter cloacae, ATCC13407, E. cloacae ATCC 13407, read-out: MIC) was 50 mg/L (≈ 101 µM). It also gave an MIC [8] of 0.1 mg/L (≈ 0.201 µM), an MIC [9] of 0.39 mg/L (≈ 0.786 µM) and an MIC [10] of 0.1 mg/L (≈ 0.201 µM). For the same compound, the MIC [11] was 0.05 mg/L (≈ 0.101 µM), the MIC [12] was 100 mg/L (≈ 201 µM) and the MIC ([12]; read-out: MIC) was > 100 mg/L. It also gave an MIC [13] of 0.1 mg/L (≈ 0.201 µM), an MIC [14] of 50 mg/L (≈ 101 µM) and an MIC [15] of 0.39 mg/L (≈ 0.786 µM). For the same compound, the MIC ([16]; E. cloacae Nek39) was 100 mg/L (≈ 201 µM), the MIC ([16]; Enterobacter cloacae, NEK39, E. cloacae Nek39, read-out: MIC) was > 100 mg/L and the MIC [17] was > 100 mg/L. The MIC ([18]; B. subtilis ATCC 6633) was 0.2 mg/L (≈ 0.403 µM), the MIC ([18]; Bacillus subtilis, ATCC6633, B. subtilis ATCC 6633, read-out: MIC) was 0.39 mg/L (≈ 0.786 µM) and the MIC [19] was 0.2 mg/L (≈ 0.403 µM). It also gave an MIC [20] of 100 mg/L (≈ 201 µM), an MIC ([20]; Burkholderia cepacia, read-out: MIC) of 50 mg/L (≈ 101 µM) and an MIC [21] of 0.1 mg/L (≈ 0.201 µM). It also gave an MIC [22] of 0.1 mg/L (≈ 0.201 µM), an MIC [23] of 0.2 mg/L (≈ 0.403 µM) and an MIC ([24]; C. freundii ATCC 8090) of 0.2 mg/L (≈ 0.403 µM). It also gave an MIC ([24]; Citrobacter freundii, ATCC8090, C. freundii ATCC 8090, read-out: MIC) of 0.39 mg/L (≈ 0.786 µM) and an MIC [25] of 0.39 mg/L (≈ 0.786 µM).
